Source: US20050171102A1, “Semicarbazide derivatives for combating thromboembolic diseases” (priority 2002, published 2005)
Structures can show the parent of a compound that is named as a salt.

Legend:
FXa = FXa (Homo sapiens, UniProt P00742); test: Factor Xa inhibition (FXa-IC50), Table 3 'Affinity to Receptors'
TF/FVIIa = TF/FVIIa (Homo sapiens, UniProt P08709); test: TF/FVIIa inhibition (TF/FVIIa-IC50), Table 3 'Affinity to Receptors'
TF/FVIIa, sequence (P08709 213-466 limits assumed): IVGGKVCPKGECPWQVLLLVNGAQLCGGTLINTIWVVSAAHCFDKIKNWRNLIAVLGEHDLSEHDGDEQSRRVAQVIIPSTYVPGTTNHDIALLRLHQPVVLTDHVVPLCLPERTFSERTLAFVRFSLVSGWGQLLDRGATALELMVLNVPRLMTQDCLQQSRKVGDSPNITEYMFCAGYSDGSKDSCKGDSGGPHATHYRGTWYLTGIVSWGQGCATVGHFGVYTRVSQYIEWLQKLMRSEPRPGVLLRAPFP
TF/FVIIa, sequence (P08709 61-212 limits assumed): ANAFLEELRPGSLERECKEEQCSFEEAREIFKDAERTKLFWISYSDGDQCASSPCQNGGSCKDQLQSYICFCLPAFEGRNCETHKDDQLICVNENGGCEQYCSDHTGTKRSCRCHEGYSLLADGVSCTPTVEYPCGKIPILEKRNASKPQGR
TF/FVIIa, sequence (P13726 33-295 partner): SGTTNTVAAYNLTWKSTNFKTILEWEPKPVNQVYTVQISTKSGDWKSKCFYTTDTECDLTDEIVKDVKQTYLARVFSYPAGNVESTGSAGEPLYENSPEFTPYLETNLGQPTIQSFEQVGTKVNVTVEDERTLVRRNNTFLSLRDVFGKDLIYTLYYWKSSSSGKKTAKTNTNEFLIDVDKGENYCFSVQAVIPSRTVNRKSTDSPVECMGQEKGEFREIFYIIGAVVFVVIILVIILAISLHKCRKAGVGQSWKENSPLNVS

FXa, sequence (P00742 235-488 limits assumed): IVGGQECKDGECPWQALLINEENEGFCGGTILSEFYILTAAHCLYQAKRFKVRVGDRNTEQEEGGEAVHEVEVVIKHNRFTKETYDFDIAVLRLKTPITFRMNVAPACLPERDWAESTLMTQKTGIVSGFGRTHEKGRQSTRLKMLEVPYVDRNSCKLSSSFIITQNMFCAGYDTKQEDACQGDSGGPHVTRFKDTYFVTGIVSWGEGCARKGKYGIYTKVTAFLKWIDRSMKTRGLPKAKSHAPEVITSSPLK
FXa, sequence (P00742 41-179 limits assumed): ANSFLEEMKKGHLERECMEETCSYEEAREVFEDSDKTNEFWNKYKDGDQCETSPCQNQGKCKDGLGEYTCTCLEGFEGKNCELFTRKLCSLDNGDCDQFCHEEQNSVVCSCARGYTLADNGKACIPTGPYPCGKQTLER

Structure (SMILES)	melting point [°C]	IC50 (FXa) [nM]	IC50 (TF/FVIIa) [nM]
Cc1cc(NC(=O)NN(c2ccccc2)c2cccc(C#N)c2)ccc1N1CCOCC1 [5′, 1-(3-cyanophenyl)-4-[3-methyl-4-(morpholin-4-yl)phenyl]-1-phenylsemicarbazide]	115 to 116	–	–
Cc1cc(NC(=O)NN(c2ccccc2)c2cccc(CN)c2)ccc1N1CCCCC1=O.Cl	172 to 173	–	–
N#Cc1cccc(NN(C(=O)Nc2ccc(N3CCCCC3=O)cc2)c2ccccc2)c1 [5″, 1-(3-cyanophenyl)-4-[4-(2-oxopiperidin-1-yl)phenyl]-2-phenylsemicarbazide]	239 to 241	–	–
N=C(N)c1cccc(NN(C(=O)Nc2ccc(N3CCOCC3=O)c(Cl)c2)c2ccccc2)c1 [Compound 4.AA, 1-(3-amidinophenyl)-4-[3-chloro-4-(3-oxomorpholin-4-yl)phenyl]-2-phenylsemicarbazide, hydrochloride]	–	20	27

More lines, now with the values ahead:

melting point [°C]	IC50 (FXa) [nM]	IC50 (TF/FVIIa) [nM]	Structure (SMILES)
161 to 162	–	–	Cc1cc(NC(=O)NN(c2ccccc2)c2cccc(C#N)c2)ccc1N1CCCCC1=O [Compound 6, 1-(3-cyanophenyl)-4-[3-methyl-4-(2-oxopiperidin-1-yl)phenyl]-1-phenylsemicarbazide]
> 300	8.6	5.1	Cc1cc(NC(=O)N(Nc2cccc(C(=N)N)c2)c2ccccc2)ccc1N1CCCCC1=O.Cl [Compound 11, 1-(3-amidinophenyl)-4-[3-methyl-4-(2-oxopiperidin-1-yl)phenyl]-2-phenylsemicarbazide, hydrochloride]
> 300	16	9.8	Cc1cc(NC(=O)NN(c2ccccc2)c2cccc(C(=N)N)c2)ccc1N1CCCCC1=O.Cl [Compound 10, 1-(3-amidinophenyl)-4-[3-methyl-4-(2-oxopiperidin-1-yl)phenyl]-1-phenylsemicarbazide, hydrochloride]
95 to 97	130	170	Cc1cc(NC(=O)N(Nc2cccc(CN)c2)c2ccccc2)ccc1N1CCCCC1=O.Cl [Compound 13, 1-(3-aminomethylphenyl)-4-[3-methyl-4-(2-oxopiperidin-1-yl)phenyl]-2-phenylsemicarbazide, hydrochloride]
